Measured values published in PMC7702303, “Biochemical and transcript level differences between the three human phosphofructokinases show optimisation of each isoform for specific metabolic niches” (Biochemical Journal, 2020).
“And” between values parts separate entries of the source, which are not always exact repeats. Identical values can stand only once. Like-named read-outs stand apart in the source and are kept apart here. Blank lines part the entries; values can stand above or below the compound they belong to.

Tests used:
recombinant human PFK-L = molecular target: T1, recombinant human PFK-L (Homo sapiens, UniProt P17858); assay: ALDO-TIM-G3PDH enzyme-linked kinetic assay, PFK-L; format: biochemical; details: PFK-L; for K0.5F6P + modulator / VmaxF6P + modulator: ATP 0.5mM
T1 construct: made in house; host or cells: PFK-deficient Saccharomyces cerevisiae
T1 sequence (P17858 1-780): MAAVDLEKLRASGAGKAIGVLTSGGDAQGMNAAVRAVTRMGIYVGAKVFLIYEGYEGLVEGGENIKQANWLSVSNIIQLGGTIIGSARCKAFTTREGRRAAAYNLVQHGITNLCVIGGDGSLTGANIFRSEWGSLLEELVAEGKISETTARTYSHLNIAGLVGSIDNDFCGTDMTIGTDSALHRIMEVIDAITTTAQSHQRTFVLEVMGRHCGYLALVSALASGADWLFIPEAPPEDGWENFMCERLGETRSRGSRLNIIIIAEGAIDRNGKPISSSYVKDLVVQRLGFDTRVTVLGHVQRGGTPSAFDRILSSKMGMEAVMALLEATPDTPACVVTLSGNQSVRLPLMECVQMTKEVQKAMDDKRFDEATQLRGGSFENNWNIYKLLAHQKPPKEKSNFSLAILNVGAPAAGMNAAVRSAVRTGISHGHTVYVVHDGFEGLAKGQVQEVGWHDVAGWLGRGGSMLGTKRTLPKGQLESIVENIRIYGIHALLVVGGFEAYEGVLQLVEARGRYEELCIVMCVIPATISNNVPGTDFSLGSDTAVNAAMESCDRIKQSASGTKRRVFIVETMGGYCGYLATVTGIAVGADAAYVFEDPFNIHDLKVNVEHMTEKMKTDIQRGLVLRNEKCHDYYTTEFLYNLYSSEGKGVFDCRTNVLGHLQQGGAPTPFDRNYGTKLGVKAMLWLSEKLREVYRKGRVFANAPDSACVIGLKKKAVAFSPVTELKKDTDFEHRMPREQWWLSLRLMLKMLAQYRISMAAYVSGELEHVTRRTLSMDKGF
Experimental: Recombinant human PFKs were expressed in PFK-deficient Saccharomyces cerevisiae and purified using the methods described previously, adapting earlier materials and protocols. Production of PFK intended for use in ATP titration experiments used 1 mM F6P as a tetramer stabilising agent in protein purification and storage buffers. Production of PFK intended for use in F6P titration experiments used 1 mM ATP as a tetramer stabilising agent in protein purification and storage buffers. Experimental details on the purification and characterisation procedures including figures showing SDS–PAGE gels of the highly pure PFKs used in the kinetic experiments described in this work have been recently published.
Assay buffer consisted of 50 mM TEA, 100 mM KCl, 10 mM MgCl2, 1 mM Tris(2-carboxyethyl)phosphine hydrochloride (TCEP), 10% glycerol, pH 7.4. Assay mix consisted of 5 units/ml glycerol-3-phosphate dehydrogenase (G3PDH, Sigma–Aldrich G6880), 2.5 units/ml aldolase (Sigma–Aldrich A2714), 25 units/ml triosephosphate isomerase (TIM, Sigma–Aldrich T6258), and 1.25 mM NADH. ATP and F6P were obtained from Sigma–Aldrich (A2383 and F3627, respectively). For ATP titrations, 38 µl of buffer or ligand were added to a clear non-binding 96-well plate. 40 µl of assay mix containing 10 mM F6P (final concentration 4 mM) was added and the plate was incubated at 25°C for 5 min. An amount of 2 µl of PFK isoforms were added to each well from stock concentrations of 150 µg/ml and the reaction was immediately started with 20 µl of ATP at varying concentrations. For F6P titrations, 30 µl of buffer or ligand was added to a clear non-binding 96-well plate. An amount of 40 µl of assay mix containing 1.25 mM ATP (final concentration 0.5 mM) was added and the plate was incubated at 25°C for 5 min. An amount of 5 µl of PFK isoforms were added to each well from stock concentrations of 200 µg/ml and the reaction was immediately started with 20 µl F6P at varying concentrations. All ligands and substrates (including ATP) were used at pH 7.4. All metabolites were obtained from Sigma–Aldrich unless otherwise stated. […] A SpectraMax M5 Multi-Mode Microplate Reader was used to measure A340nm at 13 s intervals for 10 min. All experiments were performed in triplicate unless otherwise stated.
Time-dependent absorbance change was converted into rate of NADH oxidation (µM s^−1) or specific activity (µmol min^−1 mg protein^−1) using the Beer-Lambert law (molar extinction coefficient of NADH 6.22 mM^−1 cm^−1). The initial rate of reaction was used to avoid accumulation of ADP, which activates PFK, interfering with the determination of kinetic properties. Non-linear regression analysis was performed on substrate titration data using GraphPad Prism 7, with curves fitted using allosteric sigmoidal models, enabling determination of steady-state kinetic values.

PFKM = details: PFKM, cited from earlier work; for IC50: read-out: IC50 or AC50 (inhibitor)
PFKL = details: cited from earlier work
PFKP = details: cited from earlier work
[1] = modulator 600 µM, N=3, mean (SD)
[2] = modulator 600 µM, F6P 4mM, N=3, mean (SD)
[3] = ref Foe and Kemp, 1985, read-out: IC50 or AC50 (inhibitor)
[4] = ref Vora 1985, read-out: IC50 or AC50 (inhibitor)
[5] = ATP titration, F6P 4 mM, n = 6, mean (SD)
[6] = control without modulator, run alongside modulator experiments, F6P 4mM, N=3, mean (SD)
[7] = modulator 1200 µM, N=3, mean (SD)
[8] = modulator 1200 µM, F6P 4mM, N=3, mean (SD)

- effect on PFK activity, in words (recombinant human PFK-L): mixed effects
- change in kcat^ATP/K0.5^ATP compared with control PFK without modulator (recombinant human PFK-L; modulator 600 µM): −47%
- change in kcat^F6P/K0.5^F6P compared with control PFK without modulator (recombinant human PFK-L; modulator 600 µM): +157%
- K0.5F6P + modulator (recombinant human PFK-L; [1]): 872.9 (14.9) M
- VmaxF6P + modulator (recombinant human PFK-L; [1]): 5.65 (0.07) moles/min/mg
- K0.5ATP + modulator (recombinant human PFK-L; [2]): 362.0 (46.5) M
- VmaxATP + modulator (recombinant human PFK-L; [2]): 49.38 (2.48) moles/min/mg
Structure (SMILES): Nc1ncnc2c1ncn2[C@@H]1O[C@H](COP(=O)(O)OP(=O)(O)O)[C@@H](O)[C@H]1O [ADP]

- IC50^citrate (recombinant human PFK-L; dose-response): no clear relationship
- change in kcat^ATP/K0.5^ATP compared with control PFK without modulator (recombinant human PFK-L; modulator 600 µM): +28%
- change in kcat^F6P/K0.5^F6P compared with control PFK without modulator (recombinant human PFK-L; modulator 600 µM): +2%
- K0.5F6P + modulator (recombinant human PFK-L; [1]): 2471 (244) M
- VmaxF6P + modulator (recombinant human PFK-L; [1]): 6.52 (0.71) moles/min/mg
- K0.5ATP + modulator (recombinant human PFK-L; [2]): 108.4 (9.5) M
- VmaxATP + modulator (recombinant human PFK-L; [2]): 36.14 (1.12) moles/min/mg
Structure (SMILES): O=C(O)CC(O)(CC(=O)O)C(=O)O [Citrate]
- IC50 (PFKM; ref Foe and Kemp, 1985): 100 µM
- IC50 (PFKM; ref Vora 1985): 130 µM
- IC50 (PFKL; [3]): > 2000 µM
- IC50 (PFKL; [4]): 180 µM
- IC50 (PFKP; [3]): 750 µM
- IC50 (PFKP; ref Sanchez-Martinez et al., 2000, read-out: IC50 or AC50 (inhibitor)): 400 µM
- IC50 (PFKP; [4]): 80 µM

- decrease in specificity constant (ATP inhibition) (recombinant human PFK-L; 1 mM ATP compared with 0.5 mM ATP): 31%
- K0.5^ATP (recombinant human PFK-L; [5]): 160 µM and 160.1 (13.5) µM
- Vmax^ATP (recombinant human PFK-L; [5]): 39.3 (1.2) µmoles/min.mg
- kcat^ATP (recombinant human PFK-L; [5]): 57.3 (1.7) s^−1
- h (ATP) (recombinant human PFK-L; Hill value, ATP titration, F6P 4 mM, n = 6, mean (SD)): 1.12 (0.08)
- K0.5ATP (recombinant human PFK-L; [6]): 151.2 (16.9) M and 169.0 (21.5) M
Structure (SMILES): Nc1ncnc2c1ncn2[C@@H]1O[C@H](COP(=O)(O)OP(=O)(O)OP(=O)(O)O)[C@@H](O)[C@H]1O [ATP]
- kcat^ATP/K0.5^ATP (recombinant human PFK-L; [5]): 0.36 s^−1 µM^−1 and 0.36 (0.13) s^−1 µM^−1
- VmaxATP (recombinant human PFK-L; [6]): 39.26 (1.51) moles/min/mg and 39.36 (1.80) moles/min/mg

- decrease in K0.5^F6P by AMP (recombinant human PFK-L; F6P titration): more than 5 fold
- change in kcat^ATP/K0.5^ATP compared with control PFK without modulator (recombinant human PFK-L; modulator 1200 µM): +9%
- change in kcat^F6P/K0.5^F6P compared with control PFK without modulator (recombinant human PFK-L; modulator 1200 µM): +766%
- K0.5F6P + modulator (recombinant human PFK-L; [7]): 260.6 (8.2) M
- VmaxF6P + modulator (recombinant human PFK-L; [7]): 5.68 (0.06) moles/min/mg
- K0.5ATP + modulator (recombinant human PFK-L; [8]): 156.9 (17.6) M
- VmaxATP + modulator (recombinant human PFK-L; [8]): 44.45 (1.74) moles/min/mg
Structure (SMILES): Nc1ncnc2c1ncn2[C@@H]1O[C@H](COP(=O)(O)O)[C@@H](O)[C@H]1O [AMP]
- IC50 or AC50 (activator) (PFKM; ref Foe and Kemp, 1985): 10 µM
- IC50 or AC50 (activator) (PFKL; ref Foe and Kemp, 1985): 10 µM
- IC50 or AC50 (activator) (PFKP; ref Foe and Kemp, 1985): 75 µM
- IC50 or AC50 (activator) (PFKP; ref Sanchez-Martinez et al., 2000): 8 µM
